Literature values as cited in patent publication US20130005740A1, “PROCESS FOR PREPARATION OF OVER-THE-COUNTER GELATIN OR PECTIN-BASED DRUG DELIVERY” (7267207 CANADA LIMITED CORPORATION, priority 2009, published 2013).

Conditions: unlike aspirin

- stability in solution: stable in solution
Structure (SMILES): CC(C)Cc1ccc(C(C)C(=O)O)cc1 (stereo not shown) [ibuprofen]
